Assay results taken from the supplement of paper PMC6411743.

Compound: Nc1ncnc2c1ncn2[C@@H]1O[C@H](COP(=O)(O)OP(=O)(O)OP(=O)(O)O)[C@@H](O)[C@H]1O [adenosine triphosphate]
Assay: pEC50 of ATP-induced change in protein thermal stability (2D-TPP)
Protocol: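 2D thermal proteome profiling in mechanically disrupted Jurkat crude lysate. Lysate was treated 10 min at room temperature with Na-ATP (0, 0.005, 0.05, 0.5, 2 mM), heated to 12 temperatures (42-63.9 °C) for 3 min, and soluble protein was quantified by TMT10 LC-MS/MS. pEC50 is the median over replicates of dose-response fits at the lowest temperature showing a fold change of at least 1.5 (FDR-controlled hits).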

UniProt Q15392, sequence (Q15392 whole entry): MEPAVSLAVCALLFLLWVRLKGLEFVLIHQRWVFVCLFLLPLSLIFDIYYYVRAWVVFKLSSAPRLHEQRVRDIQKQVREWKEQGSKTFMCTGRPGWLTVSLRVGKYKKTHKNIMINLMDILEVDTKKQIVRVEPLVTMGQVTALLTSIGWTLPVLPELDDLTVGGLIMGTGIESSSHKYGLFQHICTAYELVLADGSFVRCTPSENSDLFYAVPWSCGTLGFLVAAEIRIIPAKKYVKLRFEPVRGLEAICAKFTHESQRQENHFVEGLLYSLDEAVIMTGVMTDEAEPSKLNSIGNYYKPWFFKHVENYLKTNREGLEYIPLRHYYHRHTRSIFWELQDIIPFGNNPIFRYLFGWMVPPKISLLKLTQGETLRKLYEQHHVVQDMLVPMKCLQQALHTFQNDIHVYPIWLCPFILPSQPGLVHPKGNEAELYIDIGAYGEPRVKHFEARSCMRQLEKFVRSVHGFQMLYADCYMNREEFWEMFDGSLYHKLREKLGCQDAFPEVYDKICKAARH
UniProt O95396, sequence (O95396 whole entry): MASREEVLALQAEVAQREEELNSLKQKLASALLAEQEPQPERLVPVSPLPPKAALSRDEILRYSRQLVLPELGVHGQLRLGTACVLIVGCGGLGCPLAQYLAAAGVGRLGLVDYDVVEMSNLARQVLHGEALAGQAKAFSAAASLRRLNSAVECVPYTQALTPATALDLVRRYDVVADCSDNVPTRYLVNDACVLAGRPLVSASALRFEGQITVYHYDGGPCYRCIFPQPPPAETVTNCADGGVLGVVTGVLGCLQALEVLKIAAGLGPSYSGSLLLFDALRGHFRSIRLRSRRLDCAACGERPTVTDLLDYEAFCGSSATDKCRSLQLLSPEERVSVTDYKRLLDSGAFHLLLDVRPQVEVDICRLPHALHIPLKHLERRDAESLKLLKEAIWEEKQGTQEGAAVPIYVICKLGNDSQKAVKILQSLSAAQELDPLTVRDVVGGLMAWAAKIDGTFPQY
UniProt O60216, sequence (O60216 whole entry): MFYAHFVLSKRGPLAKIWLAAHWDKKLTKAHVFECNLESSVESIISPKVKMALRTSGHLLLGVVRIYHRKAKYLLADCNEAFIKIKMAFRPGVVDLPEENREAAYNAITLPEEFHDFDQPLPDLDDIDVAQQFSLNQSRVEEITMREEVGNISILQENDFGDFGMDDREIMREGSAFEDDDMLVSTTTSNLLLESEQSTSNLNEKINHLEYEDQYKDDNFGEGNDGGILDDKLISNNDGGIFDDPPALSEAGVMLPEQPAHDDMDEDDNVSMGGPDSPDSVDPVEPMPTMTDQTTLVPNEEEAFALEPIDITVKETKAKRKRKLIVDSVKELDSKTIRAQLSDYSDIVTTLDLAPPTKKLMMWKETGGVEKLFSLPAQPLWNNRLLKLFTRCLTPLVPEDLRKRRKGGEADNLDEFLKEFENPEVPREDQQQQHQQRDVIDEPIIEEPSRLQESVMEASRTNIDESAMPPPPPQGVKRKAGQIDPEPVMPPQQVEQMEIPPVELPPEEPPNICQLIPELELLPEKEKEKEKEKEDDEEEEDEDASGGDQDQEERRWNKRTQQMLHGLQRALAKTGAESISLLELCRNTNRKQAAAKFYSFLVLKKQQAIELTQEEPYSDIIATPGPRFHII
UniProt P35580, sequence (P35580 whole entry): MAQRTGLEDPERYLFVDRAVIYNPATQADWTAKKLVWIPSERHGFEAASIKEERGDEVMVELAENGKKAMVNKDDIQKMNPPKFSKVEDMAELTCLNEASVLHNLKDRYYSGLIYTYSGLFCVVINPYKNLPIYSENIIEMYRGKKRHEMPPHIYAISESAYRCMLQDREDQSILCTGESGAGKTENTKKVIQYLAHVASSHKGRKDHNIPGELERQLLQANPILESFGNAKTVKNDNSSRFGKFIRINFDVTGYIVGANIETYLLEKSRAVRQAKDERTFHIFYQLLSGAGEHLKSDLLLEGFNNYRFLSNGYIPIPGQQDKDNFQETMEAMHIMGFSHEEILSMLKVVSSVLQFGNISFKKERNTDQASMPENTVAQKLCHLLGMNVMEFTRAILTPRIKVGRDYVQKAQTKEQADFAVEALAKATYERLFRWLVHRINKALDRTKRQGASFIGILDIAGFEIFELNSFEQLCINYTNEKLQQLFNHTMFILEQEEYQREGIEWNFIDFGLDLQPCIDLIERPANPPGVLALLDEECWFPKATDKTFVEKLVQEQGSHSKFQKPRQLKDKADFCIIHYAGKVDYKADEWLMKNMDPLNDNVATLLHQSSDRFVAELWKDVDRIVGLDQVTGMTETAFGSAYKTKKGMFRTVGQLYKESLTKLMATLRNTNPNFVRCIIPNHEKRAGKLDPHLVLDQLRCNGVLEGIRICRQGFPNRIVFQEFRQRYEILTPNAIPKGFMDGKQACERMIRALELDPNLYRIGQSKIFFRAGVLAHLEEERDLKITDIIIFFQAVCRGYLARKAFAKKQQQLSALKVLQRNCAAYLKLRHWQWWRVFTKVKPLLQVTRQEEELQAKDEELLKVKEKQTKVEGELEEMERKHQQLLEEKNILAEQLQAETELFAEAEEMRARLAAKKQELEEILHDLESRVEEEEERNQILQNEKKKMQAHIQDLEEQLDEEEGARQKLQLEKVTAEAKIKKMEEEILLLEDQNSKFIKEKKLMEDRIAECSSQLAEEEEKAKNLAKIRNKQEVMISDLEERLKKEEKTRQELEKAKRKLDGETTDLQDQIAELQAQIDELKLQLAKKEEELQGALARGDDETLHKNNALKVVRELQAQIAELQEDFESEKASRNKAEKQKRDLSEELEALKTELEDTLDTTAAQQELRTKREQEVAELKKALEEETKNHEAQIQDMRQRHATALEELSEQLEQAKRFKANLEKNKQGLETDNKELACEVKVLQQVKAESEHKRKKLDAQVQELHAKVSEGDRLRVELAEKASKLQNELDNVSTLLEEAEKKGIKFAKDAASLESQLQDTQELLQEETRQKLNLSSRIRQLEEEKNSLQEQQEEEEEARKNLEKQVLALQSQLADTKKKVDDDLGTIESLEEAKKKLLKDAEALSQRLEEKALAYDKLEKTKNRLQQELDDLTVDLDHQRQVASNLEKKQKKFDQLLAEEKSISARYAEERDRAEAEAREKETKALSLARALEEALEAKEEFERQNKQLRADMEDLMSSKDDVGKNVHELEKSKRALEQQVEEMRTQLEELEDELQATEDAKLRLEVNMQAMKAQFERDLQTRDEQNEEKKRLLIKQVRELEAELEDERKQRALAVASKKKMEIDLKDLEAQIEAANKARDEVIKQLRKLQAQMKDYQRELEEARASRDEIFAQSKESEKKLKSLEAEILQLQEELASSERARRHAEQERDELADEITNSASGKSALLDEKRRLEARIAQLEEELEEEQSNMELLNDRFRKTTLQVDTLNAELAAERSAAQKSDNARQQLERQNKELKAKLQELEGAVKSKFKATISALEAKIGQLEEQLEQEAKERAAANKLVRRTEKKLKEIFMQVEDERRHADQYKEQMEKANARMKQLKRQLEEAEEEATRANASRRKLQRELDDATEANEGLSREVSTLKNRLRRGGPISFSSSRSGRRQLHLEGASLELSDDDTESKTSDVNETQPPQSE
UniProt Q8WXA9, sequence (Q8WXA9 whole entry): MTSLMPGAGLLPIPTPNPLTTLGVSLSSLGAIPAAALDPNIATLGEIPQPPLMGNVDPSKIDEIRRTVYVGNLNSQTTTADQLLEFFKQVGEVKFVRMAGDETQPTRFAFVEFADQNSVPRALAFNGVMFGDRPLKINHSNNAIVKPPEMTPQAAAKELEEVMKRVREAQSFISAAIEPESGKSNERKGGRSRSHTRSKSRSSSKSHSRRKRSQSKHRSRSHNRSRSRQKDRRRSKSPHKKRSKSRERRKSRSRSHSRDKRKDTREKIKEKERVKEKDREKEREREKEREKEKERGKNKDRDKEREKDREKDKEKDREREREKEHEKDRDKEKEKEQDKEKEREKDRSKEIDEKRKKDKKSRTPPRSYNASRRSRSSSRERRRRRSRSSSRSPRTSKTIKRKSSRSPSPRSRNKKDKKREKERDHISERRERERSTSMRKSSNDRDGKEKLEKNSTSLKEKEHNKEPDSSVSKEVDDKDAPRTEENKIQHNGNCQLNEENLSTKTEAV
UniProt O15530, sequence (O15530 whole entry): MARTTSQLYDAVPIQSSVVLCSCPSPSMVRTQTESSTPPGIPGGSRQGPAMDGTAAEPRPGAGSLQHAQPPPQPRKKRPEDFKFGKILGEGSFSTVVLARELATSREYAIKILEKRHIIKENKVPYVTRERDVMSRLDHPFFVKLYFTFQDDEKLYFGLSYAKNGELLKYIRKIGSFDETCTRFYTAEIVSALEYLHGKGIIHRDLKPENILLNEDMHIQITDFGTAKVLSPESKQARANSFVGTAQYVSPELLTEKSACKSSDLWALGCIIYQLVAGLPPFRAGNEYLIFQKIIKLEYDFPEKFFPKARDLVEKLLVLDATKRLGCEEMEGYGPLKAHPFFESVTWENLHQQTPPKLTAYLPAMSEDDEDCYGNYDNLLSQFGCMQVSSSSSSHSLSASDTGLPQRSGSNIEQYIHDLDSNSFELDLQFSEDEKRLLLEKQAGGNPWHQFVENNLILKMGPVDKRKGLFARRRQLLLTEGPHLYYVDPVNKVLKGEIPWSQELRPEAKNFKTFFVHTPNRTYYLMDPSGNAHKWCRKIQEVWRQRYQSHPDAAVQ
UniProt Q8WYJ6, sequence (Q8WYJ6 whole entry): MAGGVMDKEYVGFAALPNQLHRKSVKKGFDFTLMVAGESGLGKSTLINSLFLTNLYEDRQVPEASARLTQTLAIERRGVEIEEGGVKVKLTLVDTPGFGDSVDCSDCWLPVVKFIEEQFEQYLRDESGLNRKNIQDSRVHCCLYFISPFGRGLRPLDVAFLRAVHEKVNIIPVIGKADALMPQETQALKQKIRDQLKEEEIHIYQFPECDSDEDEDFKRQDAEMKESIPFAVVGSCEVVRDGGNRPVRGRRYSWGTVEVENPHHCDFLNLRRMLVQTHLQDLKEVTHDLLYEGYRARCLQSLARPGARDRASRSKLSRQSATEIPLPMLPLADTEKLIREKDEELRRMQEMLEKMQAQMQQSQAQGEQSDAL

| Target | pEC50 |
| --- | --- |
| UniProt P25098 (effect direction: stabilized) | 3.38 |
| GLUD1 (effect direction: stabilized) (UniProt P00367) | 4.21 |
| MYH10 (effect direction: stabilized) (UniProt P35580) | 4.1 |
| EIF4A3 (effect direction: stabilized) (UniProt P38919) | 3.68 |
| ANKMY2 (effect direction: stabilized) (UniProt Q8IV38) | < 2.7 |
| EHD4 (effect direction: stabilized) (UniProt Q9H223) | 3.86 |
| RELA (effect direction: stabilized) (UniProt Q04206) | < 2.7 |
| PCNA (effect direction: stabilized) (UniProt P12004) | < 2.7 |
| UniProt Q14289 (effect direction: stabilized) | 3.03 |
| COPS6 (effect direction: stabilized) (UniProt Q7L5N1) | < 2.7 |
| RFK (effect direction: stabilized) (UniProt Q969G6) | 4.07 |
| MCM3 (effect direction: stabilized) (UniProt P25205) | 3.53 |
| ABCB8 (effect direction: stabilized) (UniProt Q9NUT2) | 3.5 |
| FNTA (effect direction: stabilized) (UniProt P49354) | 3.22 |
| EIF5 (effect direction: stabilized) (UniProt P55010) | < 2.7 |
| RAD21 (effect direction: stabilized) (UniProt O60216) | 3.6 |
| CPSF1 (effect direction: stabilized) (UniProt Q10570) | < 2.7 |
| DHCR24 (effect direction: stabilized) (UniProt Q15392) | 3.66 |
| PSMD3 (effect direction: stabilized) (UniProt O43242) | 4.24 |
| GRAP (effect direction: stabilized) (UniProt Q13588) | 3.54 |
| UniProt Q8WXA9 (effect direction: stabilized) | 3.39 |
| CTSA (effect direction: stabilized) (UniProt P10619) | 3.12 |
| DDHD2 (effect direction: stabilized) (UniProt O94830) | < 2.7 |

| Target | pEC50 |
| --- | --- |
| XPNPEP1 (effect direction: stabilized) (UniProt Q9NQW7) | 2.77 |
| OSBPL8 (effect direction: stabilized) (UniProt Q9BZF1) | 3.4 |
| NMNAT1 (effect direction: stabilized) (UniProt Q9HAN9) | 3.08 |
| KIF20A (effect direction: stabilized) (UniProt O95235) | 3.14 |
| UniProt Q05655 (effect direction: stabilized) | 3.91 |
| UniProt P36507 (effect direction: stabilized) | 3.55 |
| ABCB10 (effect direction: stabilized) (UniProt Q9NRK6) | 4.06 |
| DECR1 (effect direction: stabilized) (UniProt Q16698) | < 2.7 |
| UGDH (effect direction: stabilized) (UniProt O60701) | 3.11 |
| UniProt O14965 (effect direction: stabilized) | 3.25 |
| MRPL30 (effect direction: destabilized) (UniProt Q8TCC3) | 3.37 |
| UniProt P27361 (effect direction: stabilized) | 3.54 |
| SMG6 (effect direction: stabilized) (UniProt Q86US8) | 3.49 |
| RABGEF1 (effect direction: stabilized) (UniProt Q9UJ41) | 3.08 |
| AHCY (effect direction: stabilized) (UniProt P23526) | 4.33 |
| PPP3CB (effect direction: destabilized) (UniProt P16298) | 3.06 |
| MOB2 (effect direction: stabilized) (UniProt Q70IA6) | 3.21 |
| UniProt Q9NYL2 (effect direction: stabilized) | 3.65 |
| CLIC1 (effect direction: stabilized) (UniProt O00299) | < 2.7 |
| LEMD2 (effect direction: stabilized) (UniProt Q8NC56) | 3.8 |
| UniProt O14920 (effect direction: stabilized) | 3.5 |
| PRKRIP1 (effect direction: destabilized) (UniProt Q9H875) | 2.81 |
| GAPDH (effect direction: stabilized) (UniProt P04406) | < 2.7 |

| Target | pEC50 |
| --- | --- |
| CDK2 (effect direction: stabilized) (UniProt P24941) | 3.13 |
| USO1 (effect direction: stabilized) (UniProt O60763) | < 2.7 |
| NRF1 (effect direction: stabilized) (UniProt Q16656) | 2.97 |
| FAM118A (effect direction: stabilized) (UniProt Q9NWS6) | 3.19 |
| SNX2 (effect direction: stabilized) (UniProt O60749) | < 2.7 |
| NCAPD2 (effect direction: stabilized) (UniProt Q15021) | 3.56 |
| PLK1 (effect direction: stabilized) (UniProt P53350) | 3.69 |
| NEK9 (effect direction: stabilized) (UniProt Q8TD19) | 3.19 |
| GRPEL1 (effect direction: destabilized) (UniProt Q9HAV7) | 4.04 |
| USP14 (effect direction: stabilized) (UniProt P54578) | < 2.7 |
| MTR (effect direction: stabilized) (UniProt Q99707) | 3.13 |
| DNAJA2 (effect direction: stabilized) (UniProt O60884) | < 2.7 |
| EIF4G1 (effect direction: stabilized) (UniProt Q04637) | 2.71 |
| MYH9 (effect direction: stabilized) (UniProt P35579) | 3.6 |
| UniProt P62495 (effect direction: stabilized) | < 2.7 |
| MOCS3 (effect direction: stabilized) (UniProt O95396) | 3.95 |
| GPN1 (effect direction: destabilized) (UniProt Q9HCN4) | 2.83 |
| SDAD1 (effect direction: destabilized) (UniProt Q9NVU7) | < 2.7 |
| C12orf29 (effect direction: destabilized) (UniProt Q8N999) | 3.11 |
| APRT (effect direction: destabilized) (UniProt P07741) | 4.41 |
| CHERP (effect direction: stabilized) (UniProt Q8IWX8) | 3.05 |
| VPS35 (effect direction: stabilized) (UniProt Q96QK1) | < 2.7 |
| GTPBP1 (effect direction: stabilized) (UniProt O00178) | 3.28 |

| Target | pEC50 |
| --- | --- |
| SUPV3L1 (effect direction: stabilized) (UniProt Q8IYB8) | 3.12 |
| LARS2 (effect direction: stabilized) (UniProt Q15031) | 3.59 |
| SNRPA1 (effect direction: stabilized) (UniProt P09661) | < 2.7 |
| NPM3 (effect direction: stabilized) (UniProt O75607) | < 2.7 |
| UniProt Q8WYJ6 (effect direction: stabilized) | < 2.7 |
| RAD51 (effect direction: stabilized) (UniProt Q06609) | 3.65 |
| UniProt O15530 (effect direction: stabilized) | 3.24 |
| JAKMIP1 (effect direction: stabilized) (UniProt Q96N16) | 3.3 |
| RPA1 (effect direction: stabilized) (UniProt P27694) | 3.58 |
| OXA1L (effect direction: stabilized) (UniProt Q15070) | < 2.7 |
| PURB (effect direction: stabilized) (UniProt Q96QR8) | < 2.7 |
| UniProt Q13043 (effect direction: stabilized) | 3.38 |
| PGAM1 (effect direction: destabilized) (UniProt P18669) | < 2.7 |
| HTATSF1 (effect direction: stabilized) (UniProt O43719) | < 2.7 |
| HSPA8 (effect direction: stabilized) (UniProt P11142) | 4.09 |
| SF3A3 (effect direction: stabilized) (UniProt Q12874) | < 2.7 |
| CYB5R3 (effect direction: stabilized) (UniProt P00387) | 4.02 |
| SACM1L (effect direction: stabilized) (UniProt Q9NTJ5) | 3.14 |
| UniProt Q9NYV4 (effect direction: stabilized) | 2.75 |
| ZC3HC1 (effect direction: stabilized) (UniProt Q86WB0) | 2.91 |
| RAPGEF1 (effect direction: destabilized) (UniProt Q13905) | 2.88 |
| PLEKHA1 (effect direction: stabilized) (UniProt Q9HB21) | 3.32 |
| LUC7L2 (effect direction: stabilized) (UniProt Q9Y383) | 3.22 |
